Key:
Candida auris biofilm = test: Biofilm CFU killing assay (96-well microtiter plate, 24 and 48 h); type: cell-based; conditions: clade 3 (strain CA9), compared to clade 1 and clade 2; AgNO3 0.0250 to 0.0025 mg/mL
Procedure: C. auris strains, the clinical isolates, were used to study the effects of the nanomaterial on biofilm formation for 24 and 48 h. All analyses were performed with replicates, and mean values were considered. Initially, culture cells from preserved stock at -80° C. were revived by streaking onto Sabauraud dextrose agar (SDA) plates and incubating overnight at 37° C. From the revived plates, a loopful of the strains was inoculated into SDB and further incubated using an orbital shaker at 130 rpm and 37° C. for 24 and 48 h. The biofilm assay was carried out using the 96-well microtiter plate. The cells harvested from overnight SDB cultures were adjusted to a cell density of 10^7 CFU/mL and diluted. […] Post incubation, plates were manually counted and recorded for the number of cells. Later, the quantity of biofilm formation was determined using a colony-forming unit technique (CFU) and determined as per the following formula: A/B×100 (A is the total number of colonies after treatment and B is the number of cells in control). […] Later, the quantity of biofilm formation was determined using the CFU technique. […] Post incubation, plates were manually counted and recorded for the number of cells. Then, the quantity of biofilm formation was determined using the CFU technique and determined as per the following formula: CFU/mL=(Number of colonies×dilution factor)/volume of plated culture. […]

planktonic C. auris = test: Effect on planktonic C. auris by light microscopy; type: cell-based, Candida auris; conditions: clade 3 (strain CA9), compared to clade 1 and clade 2; AgNO3 0.0250 to 0.0025 mg/mL
Procedure: The antifungal activity of the nanomaterial on planktonic C. auris strains was determined by using light microscopy examination. Briefly, the inoculum was adjusted to a final concentration of 10^6 cells mL^−1. […] Plates were incubated at 37° C. for 48 h. […] The mean value of the duplicates was recorded, and micrographs were taken. One-way ANOVA analysis was carried out to identify the significance.

In the case of `O=[N+]([O-])[O-].[Ag+]` [AgNO3, silver nitrate], the “inhibitory effect on the biofilm” value (Candida auris biofilm) is reported as “complete inhibitory effect” and the “inhibitory effect on the planktonic cells” value (planktonic C. auris) is reported as “complete inhibitory effect”.
